{"source": "patent US20150045313A1", "about": "“Ectoparasiticidal Methods and Formulations” (Eli Lilly and Company, priority 2009, published 2015)", "key": {"Lone Star Tick": {"system": "Lone Star Tick", "test": "Larval Packet Test (LPT)", "procedure": "Larval Packet Test (LPT)/Ticks: Test material is formulated in a 2:1 ratio of trichloroethylene: olive oil. Tissue biopsy bags are saturated with 1 ml of formulated material (n=3 per test level), and bags are allowed to dry under a fume hood for at least 2 hours. Approximately 50-100 larval-stage ticks are placed into each bag, and the bag is sealed using a plastic dialysis clip and incubated for 24 h at 27° C. and 95% relative humidity. Bags are then opened, and live/dead ticks are enumerated. Nonlinear regression is used to model dose-mortality relationship and obtain relative potency (LD50) data compared to contemporaneous controls (solvent-only or fipronil)."}, "house flies": {"system": "house flies", "procedure": "Knockdown and residual efficacy testing and comparison of spinetoram with Elector® for controlling house flies on treated panels.\nTest material concentrates of spinetoram (120 g/L suspension concentrate) and spinosad (25 g/L suspension concentrate, Elector) were diluted in distilled water to the desired testing concentrations of either 0.04% (spinetoram only) or 0.08% (both) per label recommended premise spray use rate for controlling house flies with Elector. One square foot panels, obtained from commercial building suppliers, were composed of non-treated plywood, concrete and sheet metal. A second set of both plywood and concrete substrates were primed and painted using exterior grade latex white latex paint. Diluted materials were sprayed onto panels to the point of run-off (approximately 5 seconds per panel). A total of 4 panels were tested per treatment group (n=4). House flies were anesthetized using carbon dioxide and placed inside of plastic containers secured onto panels. There were 4 sub-replicates containers per panel, each container containing 10 mixed-sex adult flies (40 flies per panel). Glucose-saturated dental wicks were secured through a hole in each cup to provide a food and water source for flies. Panels remained upright throughout testing. Fly mortality and moribundity was assessed at post-exposure intervals of 4, 8, 24, 48 and 72 hours immediately following treatment applications and again on a weekly basis for 1 month."}, "[1]": {"system": "ticks (Amblyomma americanum)", "test": "Surrogate Animal bioassay, topical exposure on rats", "type": "in vivo", "settings": "formulated in ethanol, 48 h", "procedure": "Surrogate Animal bioassay/ticks(Amblyomma americanum) and fleas:\nTopical exposure—Test materials are formulated in ethanol or acetone at the desired testing concentrations, typically 6% active ingredient or lower. Either doubling or log-dilutions are performed in ethanol to obtain additional testing concentrations (3.0, 0.3, 0.03, and 0.003 mg/cm^3). A tick containment unit is affixed to the back or adult male or female rats, and 0.05 ml of formulated test material is applied topically to the surface area inside of the containment unit. Materials are allowed to dry overnight, after which time 10 unfed dog tick nymphs are placed into each containment unit. A total of 5 rats are normally used for each test concentration. Ticks are allowed to attach and feed on treated animals for 48 h, after which time containment units are opened and live/dead ticks are enumerated. Rats may be co-infested with adult cat fleas at the time of tick infestation to obtain data for topical insecticide activity using the same animal."}, "fleas (C. felis)": {"system": "fleas (C. felis)", "test": "Third evaluation, speed-of-kill of topical spot-on against fleas on cats", "type": "in vivo", "set-up": "flea reduction 12 hours after additional infestation: concentration or dose not given beside the values", "procedure": "Third evaluation of spinetoram as a topical spot-on for control of cat flea infestations. A study was conducted to evaluate the speed-of-kill efficacy of spinetoram applied topically for the control of fleas (C. felis) on cats. Thirty-six cats were evenly allocated into six groups. One group was a no treatment and no vehicle group. On study days −8 and −1, each cat was infested with approximately 100 newly emerged, unfed adult fleas (C. felis), with an approximate split of 50/50 male to female flea. The topical solution used was spinetoram, on a pure basis, 39.6% w/w (210 mg spinetoram/0.5 ml dose), with benzyl alcohol and butylated hydroxytoluene. The treated groups were dosed once on Study Day 0 by application at the base of the skull at skin level, and flea counts were conducted as follows: […]"}, "[2]": {"settings": "4 Week Residual Activity, Sheet Metal, 400 ppm"}, "[3]": {"settings": "4 Week Residual Activity, Sheet Metal, 800 ppm"}, "[4]": {"settings": "4 Week Residual Activity, Unpainted Concrete, 400 ppm"}, "[5]": {"settings": "4 Week Residual Activity, Unpainted Concrete, 800 ppm"}, "[6]": {"settings": "4 Week Residual Activity, Unpainted Wood, 400 ppm"}, "[7]": {"settings": "4 Week Residual Activity, Unpainted Wood, 800 ppm"}, "[8]": {"settings": "Initial Activity, Sheet Metal, 400 ppm"}, "[9]": {"settings": "Initial Activity, Sheet Metal, 800 ppm"}, "[10]": {"settings": "Initial Activity, Unpainted Concrete, 400 ppm"}, "[11]": {"settings": "Initial Activity, Unpainted Concrete, 800 ppm"}, "[12]": {"settings": "Initial Activity, Unpainted Wood, 400 ppm"}, "[13]": {"settings": "Initial Activity, Unpainted Wood, 800 ppm"}}, "note": "Like-named read-outs stand apart in the source and are kept apart here.", "data": [{"substance": "Spinetoram", "values": [{"measurement": "Spinetoram/Spinosad Potency Ratio", "setting": "Lone Star Tick; Lone Star Tick", "result": 0.4}, {"measurement": "Potency (EC50)", "setting": "Lone Star Tick; Lone Star Tick larvae, 24 h", "result": 531.6, "unit": "ppm"}, {"measurement": "% House Fly Mortality at 4 h", "setting": "house flies; [2]", "result": 0, "unit": "%"}, {"measurement": "% House Fly Mortality at 8 h", "setting": "house flies; [2]", "result": 40.6, "unit": "%"}, {"measurement": "% House Fly Mortality at 24 h", "setting": "house flies; [2]", "result": 91.3, "unit": "%"}, {"measurement": "% House Fly Mortality at 48 h", "setting": "house flies; [2]", "result": 97.3, "unit": "%"}, {"measurement": "% House Fly Mortality at 4 h", "setting": "house flies; [3]", "result": 0.6, "unit": "%"}, {"measurement": "% House Fly Mortality at 8 h", "setting": "house flies; [3]", "result": 26.3, "unit": "%"}, {"measurement": "% House Fly Mortality at 24 h", "setting": "house flies; [3]", "result": 80.6, "unit": "%"}, {"measurement": "% House Fly Mortality at 48 h", "setting": "house flies; [3]", "result": 96.3, "unit": "%"}, {"measurement": "% House Fly Mortality at 4 h", "setting": "house flies; [4]", "result": 4.2, "unit": "%"}, {"measurement": "% House Fly Mortality at 8 h", "setting": "house flies; [4]", "result": 80.0, "unit": "%"}, {"measurement": "% House Fly Mortality at 24 h", "setting": "house flies; [4]", "result": 100, "unit": "%"}, {"measurement": "% House Fly Mortality at 48 h", "setting": "house flies; [4]", "result": 100, "unit": "%"}, {"measurement": "% House Fly Mortality at 4 h", "setting": "house flies; [5]", "result": 31.3, "unit": "%"}, {"measurement": "% House Fly Mortality at 8 h", "setting": "house flies; [5]", "result": 98.8, "unit": "%"}, {"measurement": "% House Fly Mortality at 24 h", "setting": "house flies; [5]", "result": 100, "unit": "%"}, {"measurement": "% House Fly Mortality at 48 h", "setting": "house flies; [5]", "result": 100, "unit": "%"}, {"measurement": "% House Fly Mortality at 4 h", "setting": "house flies; [6]", "result": 0.6, "unit": "%"}, {"measurement": "% House Fly Mortality at 8 h", "setting": "house flies; [6]", "result": 0.6, "unit": "%"}, {"measurement": "% House Fly Mortality at 24 h", "setting": "house flies; [6]", "result": 4.7, "unit": "%"}, {"measurement": "% House Fly Mortality at 48 h", "setting": "house flies; [6]", "result": 12.1, "unit": "%"}, {"measurement": "% House Fly Mortality at 4 h", "setting": "house flies; [7]", "result": 0, "unit": "%"}, {"measurement": "% House Fly Mortality at 8 h", "setting": "house flies; [7]", "result": 0, "unit": "%"}, {"measurement": "% House Fly Mortality at 24 h", "setting": "house flies; [7]", "result": 22.6, "unit": "%"}, {"measurement": "% House Fly Mortality at 48 h", "setting": "house flies; [7]", "result": 61.2, "unit": "%"}, {"measurement": "% House Fly Mortality at 4 h", "setting": "house flies; [8]", "result": 19.7, "unit": "%"}, {"measurement": "% House Fly Mortality at 8 h", "setting": "house flies; [8]", "result": 91.8, "unit": "%"}, {"measurement": "% House Fly Mortality at 24 h", "setting": "house flies; [8]", "result": 100, "unit": "%"}, {"measurement": "% House Fly Mortality at 48 h", "setting": "house flies; [8]", "result": 100, "unit": "%"}, {"measurement": "% House Fly Mortality at 4 h", "setting": "house flies; [9]", "result": 31.5, "unit": "%"}, {"measurement": "% House Fly Mortality at 8 h", "setting": "house flies; [9]", "result": 100, "unit": "%"}, {"measurement": "% House Fly Mortality at 24 h", "setting": "house flies; [9]", "result": 100, "unit": "%"}, {"measurement": "% House Fly Mortality at 48 h", "setting": "house flies; [9]", "result": 100, "unit": "%"}, {"measurement": "% House Fly Mortality at 4 h", "setting": "house flies; [10]", "result": 45.4, "unit": "%"}, {"measurement": "% House Fly Mortality at 8 h", "setting": "house flies; [10]", "result": 98.6, "unit": "%"}, {"measurement": "% House Fly Mortality at 24 h", "setting": "house flies; [10]", "result": 100, "unit": "%"}, {"measurement": "% House Fly Mortality at 48 h", "setting": "house flies; [10]", "result": 100, "unit": "%"}, {"measurement": "% House Fly Mortality at 4 h", "setting": "house flies; [11]", "result": 42.5, "unit": "%"}, {"measurement": "% House Fly Mortality at 8 h", "setting": "house flies; [11]", "result": 99.2, "unit": "%"}, {"measurement": "% House Fly Mortality at 24 h", "setting": "house flies; [11]", "result": 100, "unit": "%"}, {"measurement": "% House Fly Mortality at 48 h", "setting": "house flies; [11]", "result": 100, "unit": "%"}, {"measurement": "% House Fly Mortality at 4 h", "setting": "house flies; [12]", "result": 1.3, "unit": "%"}, {"measurement": "% House Fly Mortality at 8 h", "setting": "house flies; [12]", "result": 5.9, "unit": "%"}, {"measurement": "% House Fly Mortality at 24 h", "setting": "house flies; [12]", "result": 83.7, "unit": "%"}, {"measurement": "% House Fly Mortality at 48 h", "setting": "house flies; [12]", "result": 98.8, "unit": "%"}, {"measurement": "% House Fly Mortality at 4 h", "setting": "house flies; [13]", "result": 0.6, "unit": "%"}, {"measurement": "% House Fly Mortality at 8 h", "setting": "house flies; [13]", "result": 39.4, "unit": "%"}, {"measurement": "% House Fly Mortality at 24 h", "setting": "house flies; [13]", "result": 100, "unit": "%"}, {"measurement": "% House Fly Mortality at 48 h", "setting": "house flies; [13]", "result": 100, "unit": "%"}, {"measurement": "activity compared to Elector", "setting": "house flies; at one half the application rate, sheet metal and unpainted concrete panels", "result": "equivalent or superior to Elector"}, {"measurement": "initial activity compared to Elector", "setting": "house flies; unpainted plywood", "result": "equivalent initial activity"}, {"measurement": "residual activity compared to Elector", "setting": "house flies; unpainted plywood", "result": "marginally inferior residual activity"}, {"measurement": "topical activity against tick nymphs compared to spinosad", "setting": "[1]", "result": "equivalent to that of spinosad"}, {"measurement": "flea reduction 1 hour after additional infestation", "setting": "fleas (C. felis); 28 days after treatment", "result": 80.7, "unit": "%"}, {"measurement": "flea reduction 4 hours after additional infestation", "setting": "fleas (C. felis); 28 days after treatment", "result": 91.6, "unit": "%"}, {"measurement": "flea reduction 8 hours after additional infestation", "setting": "fleas (C. felis); 28 days after treatment", "result": 98.5, "unit": "%"}, {"measurement": "flea reduction 12 hours after additional infestation", "setting": "fleas (C. felis); 28 days after treatment", "result": 100, "unit": "%"}, {"measurement": "flea reduction 24 hours after additional infestation", "setting": "fleas (C. felis); 28 days after treatment", "result": 100, "unit": "%"}, {"measurement": "reduction in live flea numbers, four hours after treatment", "setting": "fleas (C. felis); cats, 210 mg/0.5 ml dose, 4 hours", "result": 63.2, "unit": "%"}, {"measurement": "efficacy level, eight hours post-dosing", "setting": "fleas (C. felis); cats, 210 mg/0.5 ml dose, 8 hours", "result": 94.6, "unit": "%"}, {"measurement": "efficacy, twelve hour time point", "setting": "fleas (C. felis); cats, 210 mg/0.5 ml dose, 12 hours", "result": 98.6, "unit": "%"}, {"measurement": "efficacy, twenty-four hour time point", "setting": "fleas (C. felis); cats, 210 mg/0.5 ml dose, 24 hours", "result": 100, "unit": "%"}, {"measurement": "flea reduction 4 hours after additional infestation", "setting": "fleas (C. felis); seven days after treatment", "result": 100, "unit": "%"}, {"measurement": "flea reduction 8 hours after additional infestation", "setting": "fleas (C. felis); seven days after treatment", "result": 100, "unit": "%"}, {"measurement": "flea reduction 12 hours after additional infestation", "setting": "fleas (C. felis); seven days after treatment", "result": 100, "unit": "%"}, {"measurement": "flea reduction 24 hours after additional infestation", "setting": "fleas (C. felis); seven days after treatment", "result": 100, "unit": "%"}, {"measurement": "fleas killed within one hour of an additional infestation", "setting": "fleas (C. felis); seven days after treatment, 1 hour", "result": "over 90%"}]}]}
